Consider 22 compounds from US12331035B2, “Bicyclic compound and use thereof” (SK BIOPHARMACEUTICALS CO., LTD., priority 2019, dated 2025).

Molecules are shown by their SMILES. Structures can show the parent of a compound that is named as a salt.

The term IC50 denotes the midpoint of a concentration-inhibition curve.

The assay addresses T1, PRMT5-MEP50 enzyme complex (Homo sapiens, UniProt O14744).
T1 construct: purchased BPS Bioscience (USA) 51045
Description: In vitro PRMT5 enzyme activity assay (methylation of histone H4 arginine H4R3, ELISA absorbance at 450 nm). Particulars: S-adenosylmethionine, histone H4 peptide, 2 hours at room temperature, 8 points 10 μM to 0.128 nM. The format is biochemical. The essentials:
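Human PRMT5-MEP50 (5 μg/mL working stock) with 2 μM SAM stock on histone H4 (1-20) peptide-coated plates, compound 8-point 1:5 series from 10 μM, 2 h at room temperature. H4R3 methylation detected by antibody/HRP ELISA, absorbance 450 nm; IC50 calculated.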
In general terms: ELISA stands for enzyme-linked immunosorbent assay.

T1 sequence (O14744 2-637 limits assumed): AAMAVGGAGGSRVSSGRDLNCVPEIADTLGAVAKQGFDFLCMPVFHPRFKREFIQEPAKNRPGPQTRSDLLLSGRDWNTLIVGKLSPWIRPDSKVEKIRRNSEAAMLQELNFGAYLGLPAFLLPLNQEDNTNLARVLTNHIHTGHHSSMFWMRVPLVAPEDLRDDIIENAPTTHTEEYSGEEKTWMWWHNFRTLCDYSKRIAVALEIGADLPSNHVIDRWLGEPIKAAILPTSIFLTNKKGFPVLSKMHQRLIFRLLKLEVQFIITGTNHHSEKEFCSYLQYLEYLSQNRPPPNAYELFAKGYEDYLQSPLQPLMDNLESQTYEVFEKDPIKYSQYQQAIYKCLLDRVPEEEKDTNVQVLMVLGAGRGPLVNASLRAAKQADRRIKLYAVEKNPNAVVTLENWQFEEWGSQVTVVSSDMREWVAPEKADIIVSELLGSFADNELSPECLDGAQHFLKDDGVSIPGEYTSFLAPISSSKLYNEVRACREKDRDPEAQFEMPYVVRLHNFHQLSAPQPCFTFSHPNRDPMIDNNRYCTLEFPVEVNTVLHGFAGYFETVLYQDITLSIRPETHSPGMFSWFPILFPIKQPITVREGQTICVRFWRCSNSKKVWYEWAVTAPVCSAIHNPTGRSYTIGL
T1 sequence (Q9BQA1 2-342 partner limits assumed): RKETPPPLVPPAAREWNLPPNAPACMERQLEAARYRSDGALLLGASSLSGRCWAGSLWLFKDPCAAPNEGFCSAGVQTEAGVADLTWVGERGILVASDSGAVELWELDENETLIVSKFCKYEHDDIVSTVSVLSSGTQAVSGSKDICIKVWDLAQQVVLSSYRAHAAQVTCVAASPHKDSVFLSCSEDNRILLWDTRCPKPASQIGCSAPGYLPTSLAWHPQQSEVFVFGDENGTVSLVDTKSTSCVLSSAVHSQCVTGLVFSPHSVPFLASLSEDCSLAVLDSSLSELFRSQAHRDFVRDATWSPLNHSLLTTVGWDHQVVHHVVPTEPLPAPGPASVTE

As to `O=C1c2ccc(C3=CCNCC3)cc2CCN1C[C@H](O)CN1CCc2ccccc2C1` [Example 57, 2-[(2R)-3-(3,4-dihydro-1H-isoquinolin-2-yl)-2-hydroxy-propyl]-6-(1,2,3,6-tetrahydropyridin-4-yl)-3,4-dihydroisoquinolin-1-one], the IC50 was 1 to 100 nM.
For `COC1CCN(Cc2ccc3c(c2)CCN(C[C@H](O)CN2CCc4ccccc4C2)C3=O)CC1` [Example 66, 2-[(2R)-3-(3,4-dihydro-1H-isoquinolin-2-yl)-2-hydroxy-propyl]-6-[(4-methoxy-1-piperidyl)methyl]-3,4-dihydroisoquinolin-1-one] the value was 1 to 100 nM; for `CN1CCCN(c2ccc3c(c2)CCN(C[C@H](O)CN2CCc4ccccc4C2)C3=O)CC1=O` [Example 79, 2-[(2R)-3-(3,4-dihydro-1H-isoquinolin-2-yl)-2-hydroxy-propyl]-6-(4-methyl-3-oxo-1,4-diazepan-1-yl)-3,4-dihydroisoquinolin-1-one], 1 to 100 nM; for `O=C1c2ccc(N3CCC(CO)CC3)cc2CCN1C[C@H](O)CN1CCc2ccccc2C1` [Example 35, 2-[(2R)-3-(3,4-dihydro-1H-isoquinolin-2-yl)-2-hydroxy-propyl]-6-[4-(hydroxymethyl)-1-piperidyl]-3,4-dihydroisoquinolin-1-one], 1 to 100 nM.
`CC(=O)NC1CCN(c2ccc3c(c2)CCN(C[C@H](O)CN2CCc4ccccc4C2)C3=O)CC1` [Example 92, N-[1-[2-[(2R)-3-(3,4-dihydro-1H-isoquinolin-2-yl)-2-hydroxy-propyl]-1-oxo-3,4-dihydroisoquinolin-6-yl]-4-piperidyl]acetamide] yielded an IC50 of 100 to 1000 nM.
As for `O=C1c2ccc(NC3CCCNC3)cc2CCN1C[C@H](O)CN1CCc2ccccc2C1` (stereo partly drawn) [Example 77, 2-[(2R)-3-(3,4-dihydro-1H-isoquinolin-2-yl)-2-hydroxy-propyl]-6-(3-piperidylamino)-3,4-dihydroisoquinolin-1-one], the figure is 100 to 1000 nM; as for `O=C1c2ccc(N3CCS(=O)(=O)CC3)cc2CCN1C[C@H](O)CN1CCc2ccccc2C1` [Example 49, 2-[(2R)-3-(3,4-dihydro-1H-isoquinolin-2-yl)-2-hydroxy-propyl]-6-(1,1-dioxo-1,4-thiazinan-4-yl)-3,4-dihydroisoquinolin-1-one], 1 to 100 nM.
`O=C1c2ccc(N3CC4CC3CO4)cc2CCN1C[C@H](O)CN1CCc2ccccc2C1` (stereo partly drawn) [Example 73, 2-[(2R)-3-(3,4-dihydro-1H-isoquinolin-2-yl)-2-hydroxy-propyl]-6-(2-oxa-5-azabicyclo[2.2.1]heptan-5-yl)-3,4-dihydroisoquinolin-1-one] yielded an IC50 of 100 to 1000 nM.
The compound `COC1CCN(c2ccc3c(c2)CCN(C[C@H](O)CN2CCc4ccccc4C2)C3=O)CC1` [Example 48, 2-[(2R)-3-(3,4-dihydro-1H-isoquinolin-2-yl)-2-hydroxy-propyl]-6-(4-methoxy-1-piperidyl)-3,4-dihydroisoquinolin-1-one] registered an IC50 of 1 to 100 nM.
As for `COC(=O)N1CCN(c2ccc3c(c2)CCN(C[C@H](O)CN2CCc4ccccc4C2)C3=O)CC1` [Example 60, methyl 4-[2-[(2R)-3-(3,4-dihydro-1H-isoquinolin-2-yl)-2-hydroxy-propyl]-1-oxo-3,4-dihydroisoquinolin-6-yl]piperazine-1-carboxylate], the figure is 100 to 1000 nM; as for `CC(C)(C)C(=O)Nc1ccc2c(c1)CCN(C[C@H](O)CN1CCc3ccccc3C1)C2=O` [Example 19, N-[2-[(2R)-3-(3,4-dihydro-1H-isoquinolin-2-yl)-2-hydroxy-propyl]-1-oxo-3,4-dihydroisoquinolin-6-yl]-2,2-dimethylpropanamide], 100 to 1000 nM.
The compound `CC(=O)N(C)C1CCN(c2ccc3c(c2)CCN(C[C@H](O)CN2CCc4ccccc4C2)C3=O)CC1` [Example 90, N-[1-[2-[(2R)-3-(3,4-dihydro-1H-isoquinolin-2-yl)-2-hydroxy-propyl]-1-oxo-3,4-dihydroisoquinolin-6-yl]-4-piperidyl]-N-methyl-acetamide] displayed a concentration for half-maximal inhibition (IC50) of 1 to 100 nM.
`CC(=O)N1CCC(Nc2ccc3c(c2)CCN(C[C@H](O)CN2CCc4ccccc4C2)C3=O)C1` (stereo partly drawn) [Example 99, 6-[(1-acetylpyrrolidin-3-yl)amino]-2-[(2R)-3-(3,4-dihydro-1H-isoquinolin-2-yl)-2-hydroxy-propyl]-3,4-dihydroisoquinolin-1-one] returned an IC50 of 100 to 1000 nM.
Take `CN(C)C1CCCN(c2ccc3c(c2)CCN(C[C@H](O)CN2CCc4ccccc4C2)C3=O)C1` (stereo partly drawn) [Example 116, 2-[(2R)-3-(3,4-dihydro-1H-isoquinolin-2-yl)-2-hydroxy-propyl]-6-[3-(dimethylamino)-1-piperidyl]-3,4-dihydroisoquinolin-1-one]: the half-maximal inhibitory concentration (IC50) was in the range of 100 to 1000 nM.
Take `CC1CN(c2ccc3c(c2)CCN(C[C@H](O)CN2CCc4ccccc4C2)C3=O)CC(C)N1` (stereo partly drawn) [Example 29, 2-[(2R)-3-(3,4-dihydro-1H-isoquinolin-2-yl)-2-hydroxy-propyl]-6-(3,5-dimethylpiperazin-1-yl)-3,4-dihydroisoquinolin-1-one]: the IC50 lay within 1 to 100 nM.
`CN(C)C1CCN(c2ccc3c(c2)C(C)(C)CN(C[C@H](O)CN2CCc4ccccc4C2)C3=O)CC1` [Example 126, 2-[(2R)-3-(3,4-dihydro-1H-isoquinolin-2-yl)-2-hydroxy-propyl]-6-[4-(dimethylamino)-1-piperidyl]-4,4-dimethyl-3H-isoquinolin-1-one; dihydrochloride] returned a concentration for half-maximal inhibition (IC50) of 1 to 100 nM.
`O=C1c2ccc(C#Cc3ccncc3)cc2CCN1C[C@H](O)CN1CCc2ccccc2C1` [Example 138, 2-[(2R)-3-(3,4-dihydro-1H-isoquinolin-2-yl)-2-hydroxypropyl]-6-[2-(4-pyridyl)ethynyl]-3,4-dihydroisoquinolin-1-one]: the IC50 was 100 to 1000 nM.
For `O=C1c2ccc(N3CCCCC3=O)cc2CCN1C[C@H](O)CN1CCc2ccccc2C1` [Example 21, 2-[(2R)-3-(3,4-dihydro-1H-isoquinolin-2-yl)-2-hydroxy-propyl]-6-(2-oxo-1-piperidyl)-3,4-dihydroisoquinolin-1-one], the IC50 lay within 100 to 1000 nM.
As for `C[C@@H]1CN(c2ccc3c(c2)CCN(C[C@H](O)CN2CCc4ccccc4C2)C3=O)CCO1` [Example 16, 2-[(2R)-3-(3,4-dihydro-1H-isoquinolin-2-yl)-2-hydroxy-propyl]-6-[(2R)-2-methylmorpholin-4-yl]-3,4-dihydroisoquinolin-1-one], the figure is 1 to 100 nM; as for `CC1(C)CN(C[C@H](O)CN2CCc3ccccc3C2)C(=O)c2ccc(N3CCN(C=O)CC3)cc21` [Example 130, 4-[2-[(2R)-3-(3,4-dihydro-1H-isoquinolin-2-yl)-2-hydroxy-propyl]-4,4-dimethyl-1-oxo-3H-isoquinolin-6-yl]piperazine-1-carbaldehyde; hydrochloride], 1000 to 10000 nM; as for `O=C1c2ccc(N3CCCC(CO)C3)cc2CCN1C[C@H](O)CN1CCc2ccccc2C1` (stereo partly drawn) [Example 36, 2-[(2R)-3-(3,4-dihydro-1H-isoquinolin-2-yl)-2-hydroxy-propyl]-6-[3-(hydroxymethyl)-1-piperidyl]-3,4-dihydroisoquinolin-1-one], 1 to 100 nM.
For `CC(=O)N1CCCC(Nc2ccc3c(c2)CCN(C[C@H](O)CN2CCc4ccccc4C2)C3=O)C1` (stereo partly drawn) [Example 93, 6-[(1-acetyl-3-piperidyl)amino]-2-[(2R)-3-(3,4-dihydro-1H-isoquinolin-2-yl)-2-hydroxy-propyl]-3,4-dihydroisoquinolin-1-one] the value was 1 to 100 nM.
